Experimental data reported in US7459481B2, “Stimulation of CPT-1 as a means to reduce weight” (The Johns Hopkins University School of Medicine Licensing …, priority 2002, dated 2008).

Experiments:
MCF-7 cells [1] = details: cited from earlier work
FAS = FAS (Homo sapiens, UniProt P49327); assay: FAS activity, malonyl-CoA dependent oxidation of NADPH at OD340; assay type: biochemical
Description: (§1) FAS activity was measured by monitoring the malonyl-CoA dependent oxidation of NADPH spectrophotometrically at OD340 in 96-well plates, as described in International Patent Publication WO 2004/005277. The IC50 for the compounds against FAS was determined by plotting the change in OD340 against time for each inhibitor concentration tested and determining the rate of change by linear regression. The concentration of a particular compound yielding 50% inhibition of the rate for FAS in the absence of the compound is the IC50. Stimulation of CPT-1 activity was measured as described in Example 2, except the cells were preincubated with the compound for 2 hours at the concentrations indicated in the table. Stimulation of Fatty acid oxidation was determined as described in Example 1 for cells preincubated with the compounds at the concentrations indicated in the table.

CPT-1 [2] = assay: CPT-1 activity in differentiated 3T3-L1 adipocytes; assay type: cell-based, mouse; details: 2 hours
Description: CPT-1 activity was assayed in MCF-7 cells by the following published procedure: MCF-7 cells were plated in DMEM with 10% fetal bovine serum at 10^6 cells in 24-well plates in triplicate. Following overnight incubation at 37° C., the medium was removed and replaced with 700 μl of assay medium consisting of: 50 mM imidazole, 70 mM KCl, 80 mM sucrose, 1 mM EGTA, 2 mM MgCl2, 1 mM DTT, 1 mM KCN, 1 mM ATP, 0.1% fatty acid free bovine serum albumin, 70 μM palmitoyl-CoA, 0.25 μCi [methyl-^14C]L-carnitine, 40 μg digitonin with or without 20 μM malonyl-CoA. After incubation for 6 minutes at 37° C., the reaction was stopped by the addition of 500 μl of ice-cold 4 M perchloric acid. Cells were then harvested and centrifuged at 13,000×g for 5 min. […] The butanol phase was counted by liquid scintillation and represents the acylcarnitine derivative.
To expand the study of effects of C75 on fatty acid metabolism beyond cancer cell lines to normal adipocytes, differentiated (non-transformed) mouse NIH 3T3-L1 adipocytes were used in assays similar to those performed with the MCF-7 cells. […] The differentiated cells were ready to be used for experiments in 7-10 days.
C75 increased CPT-1 activity and fatty acid metabolism in the NIH 3T3-L1 cells differentiated into adipocytes. […] CPT-1 activity, fatty acid oxidation, and total cellular ATP were measured as described in Examples 2, 1, and 4. […]

CPT-1 [3] = target: T1, CPT-1 (Homo sapiens, UniProt P50416); assay: CPT-1 activity assay in MCF-7 cells; assay type: cell-based
T1 construct: endogenous in cells; host or cells: MCF-7 human breast cancer cells
T1 sequence (P50416 1-773): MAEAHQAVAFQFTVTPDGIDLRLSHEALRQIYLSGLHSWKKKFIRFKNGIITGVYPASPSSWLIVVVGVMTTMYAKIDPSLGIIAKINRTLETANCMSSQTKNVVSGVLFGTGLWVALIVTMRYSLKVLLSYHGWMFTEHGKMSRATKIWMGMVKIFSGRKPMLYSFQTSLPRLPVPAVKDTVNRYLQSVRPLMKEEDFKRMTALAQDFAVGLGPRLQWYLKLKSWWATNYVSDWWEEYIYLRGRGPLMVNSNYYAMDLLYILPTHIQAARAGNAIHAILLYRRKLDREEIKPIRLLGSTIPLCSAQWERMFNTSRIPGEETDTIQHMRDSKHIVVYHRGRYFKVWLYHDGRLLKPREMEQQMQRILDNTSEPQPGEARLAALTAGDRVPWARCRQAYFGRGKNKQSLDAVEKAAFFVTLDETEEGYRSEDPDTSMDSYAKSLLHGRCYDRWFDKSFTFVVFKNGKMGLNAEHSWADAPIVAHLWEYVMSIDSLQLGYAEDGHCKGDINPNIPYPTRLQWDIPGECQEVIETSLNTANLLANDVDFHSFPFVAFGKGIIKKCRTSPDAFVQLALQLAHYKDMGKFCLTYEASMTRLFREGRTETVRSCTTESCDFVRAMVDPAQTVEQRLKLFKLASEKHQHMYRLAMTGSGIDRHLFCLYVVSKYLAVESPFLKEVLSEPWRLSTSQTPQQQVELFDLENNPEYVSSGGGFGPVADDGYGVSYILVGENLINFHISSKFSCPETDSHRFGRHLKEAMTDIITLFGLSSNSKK
Description: CPT-1 activity was assayed in MCF-7 cells by the following published procedure: MCF-7 cells were plated in DMEM with 10% fetal bovine serum at 10^6 cells in 24-well plates in triplicate. Following overnight incubation at 37° C., the medium was removed and replaced with 700 μl of assay medium consisting of: 50 mM imidazole, 70 mM KCl, 80 mM sucrose, 1 mM EGTA, 2 mM MgCl2, 1 mM DTT, 1 mM KCN, 1 mM ATP, 0.1% fatty acid free bovine serum albumin, 70 μM palmitoyl-CoA, 0.25 μCi [methyl-^14C]L-carnitine, 40 μg digitonin with or without 20 μM malonyl-CoA. After incubation for 6 minutes at 37° C., the reaction was stopped by the addition of 500 μl of ice-cold 4 M perchloric acid. Cells were then harvested and centrifuged at 13,000×g for 5 min. The pellet was washed with 500 μl ice cold 2 mM perchloric acid and centrifuged again. The resulting pellet was resuspended in 800 μl dH2O and extracted with 150 μl of butanol. The butanol phase was counted by liquid scintillation and represents the acylcarnitine derivative.
MCF-7 cells were treated with C75 at 10 or 20 μg/mL for 1 hr before CPT-1 activity was assayed. The assay was performed with the C75 and malonyl-CoA concentrations indicated (“M” indicates malonyl-CoA at 20 uM). Malonyl-CoA treatment alone caused a 46% reduction in CPT-1 activity similar to the previous experiment (see FIG. 2; p=0.02, two-tailed t-test, Prism 3.0). The level of malonyl-CoA inhibition of the CPT-1 activity is consistent with the activity of the liver isoform of CPT-1 in MCF-7 cells. The Ki of malonyl-CoA for the liver isoform of CPT-1 is ˜7 μM while the Ki for the muscle isoform of CPT-1 is 0.07 μM. Thus, MCF-7 cells express predominantly the liver isoform of CPT-1 (consistent with the immunoblot analysis).
as §1

MCF-7 cells [4] = assay: Total cellular ATP (luciferase assay) in MCF-7 cells; assay type: cell-based, human; details: MCF-7, 10 μg/ml and 20 μg/ml, 2 hours, FIG. 5
Description: 1×10^5 MCF-7 cells were plated in 96 well plates. Cells were treated with C75 or vehicle. After 2 hours, ATP was measured using a luciferase assay using the ATP Bioluminescence Kit CLS II (Roche) following the manufacturer's protocol. Plates were read by a Perkin Elmer Wallac Victor^2 1420 luminometer. […] Similar results were obtained after 1 hr incubation with C75. Thus, cellular energy production increased as a result of C75 increasing fatty acid oxidation.

Sequence of FAS (P49327 whole entry): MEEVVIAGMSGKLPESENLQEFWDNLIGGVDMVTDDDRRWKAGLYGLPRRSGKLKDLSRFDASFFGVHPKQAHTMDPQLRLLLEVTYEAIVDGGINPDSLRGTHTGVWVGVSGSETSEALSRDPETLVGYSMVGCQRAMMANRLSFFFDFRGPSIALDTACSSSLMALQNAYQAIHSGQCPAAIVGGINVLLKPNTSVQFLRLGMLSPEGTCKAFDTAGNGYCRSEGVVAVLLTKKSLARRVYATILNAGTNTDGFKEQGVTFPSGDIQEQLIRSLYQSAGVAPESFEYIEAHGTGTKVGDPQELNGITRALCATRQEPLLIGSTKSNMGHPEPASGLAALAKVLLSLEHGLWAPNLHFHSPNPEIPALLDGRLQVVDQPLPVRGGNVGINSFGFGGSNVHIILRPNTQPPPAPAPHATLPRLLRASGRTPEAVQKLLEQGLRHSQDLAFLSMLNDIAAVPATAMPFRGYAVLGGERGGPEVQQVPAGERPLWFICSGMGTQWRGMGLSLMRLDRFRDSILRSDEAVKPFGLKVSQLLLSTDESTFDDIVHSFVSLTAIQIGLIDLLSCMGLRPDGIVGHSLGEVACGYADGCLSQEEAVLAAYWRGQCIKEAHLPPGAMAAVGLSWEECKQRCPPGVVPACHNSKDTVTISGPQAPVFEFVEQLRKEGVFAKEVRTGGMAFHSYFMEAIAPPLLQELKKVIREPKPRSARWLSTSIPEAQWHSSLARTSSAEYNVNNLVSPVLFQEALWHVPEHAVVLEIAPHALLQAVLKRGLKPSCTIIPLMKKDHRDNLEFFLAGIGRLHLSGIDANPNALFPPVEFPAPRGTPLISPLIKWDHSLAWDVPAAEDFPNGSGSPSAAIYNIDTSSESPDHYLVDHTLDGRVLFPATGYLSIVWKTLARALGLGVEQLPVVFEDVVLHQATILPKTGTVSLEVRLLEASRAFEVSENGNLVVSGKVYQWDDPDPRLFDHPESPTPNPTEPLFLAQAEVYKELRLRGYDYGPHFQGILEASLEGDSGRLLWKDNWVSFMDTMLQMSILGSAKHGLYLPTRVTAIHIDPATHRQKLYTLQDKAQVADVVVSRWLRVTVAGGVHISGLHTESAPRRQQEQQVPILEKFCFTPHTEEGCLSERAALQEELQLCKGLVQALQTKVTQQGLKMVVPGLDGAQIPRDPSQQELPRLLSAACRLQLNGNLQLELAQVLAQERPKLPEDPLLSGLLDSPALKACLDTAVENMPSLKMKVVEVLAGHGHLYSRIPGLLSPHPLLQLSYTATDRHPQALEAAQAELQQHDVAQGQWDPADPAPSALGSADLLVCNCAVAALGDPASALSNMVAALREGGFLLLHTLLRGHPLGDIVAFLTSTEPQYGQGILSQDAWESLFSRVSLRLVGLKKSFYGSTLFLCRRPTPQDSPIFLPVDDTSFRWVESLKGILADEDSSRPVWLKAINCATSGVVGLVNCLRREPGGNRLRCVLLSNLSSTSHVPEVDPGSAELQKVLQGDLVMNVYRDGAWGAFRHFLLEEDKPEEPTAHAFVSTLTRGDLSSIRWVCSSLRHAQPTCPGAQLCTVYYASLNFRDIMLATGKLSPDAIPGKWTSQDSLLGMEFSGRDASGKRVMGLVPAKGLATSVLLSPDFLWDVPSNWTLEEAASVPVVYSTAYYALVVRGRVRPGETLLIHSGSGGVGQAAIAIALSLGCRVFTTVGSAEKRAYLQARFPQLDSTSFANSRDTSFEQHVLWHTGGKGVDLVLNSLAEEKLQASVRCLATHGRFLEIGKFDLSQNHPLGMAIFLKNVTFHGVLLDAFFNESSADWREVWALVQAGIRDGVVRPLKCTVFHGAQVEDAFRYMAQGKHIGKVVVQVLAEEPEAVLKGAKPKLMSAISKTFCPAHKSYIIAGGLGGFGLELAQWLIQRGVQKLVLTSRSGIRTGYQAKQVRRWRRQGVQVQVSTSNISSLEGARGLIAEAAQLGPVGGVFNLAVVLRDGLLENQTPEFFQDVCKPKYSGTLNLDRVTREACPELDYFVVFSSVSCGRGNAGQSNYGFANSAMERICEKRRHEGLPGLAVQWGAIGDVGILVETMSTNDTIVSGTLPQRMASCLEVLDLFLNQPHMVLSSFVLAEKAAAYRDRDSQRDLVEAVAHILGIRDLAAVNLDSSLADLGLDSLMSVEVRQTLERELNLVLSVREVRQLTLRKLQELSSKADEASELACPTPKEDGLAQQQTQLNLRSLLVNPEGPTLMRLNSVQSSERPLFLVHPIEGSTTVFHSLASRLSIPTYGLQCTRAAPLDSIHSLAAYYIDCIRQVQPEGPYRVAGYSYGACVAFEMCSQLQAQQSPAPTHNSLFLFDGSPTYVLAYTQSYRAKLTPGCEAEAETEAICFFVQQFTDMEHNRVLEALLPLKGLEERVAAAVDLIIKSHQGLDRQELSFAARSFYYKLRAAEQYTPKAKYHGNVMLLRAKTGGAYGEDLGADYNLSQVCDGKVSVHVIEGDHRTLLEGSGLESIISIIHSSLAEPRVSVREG

## C=C1C(=O)OC(CCCCCCCC)C1C(=O)O (stereo not shown) [Compound C75]
MCF-7 cells [1]
  increase in malonyl-CoA: > 5 fold
FAS
  FAS Inhibition (IC50): 55 µg/mL
CPT-1 [2]
  increase in CPT-1 activity above control: 377%
CPT-1 [3]; 20 μg/mL, cells preincubated 2 hours
  CPT-1 Stimulation (% Control): 125 % Control
CPT-1 [3]; MCF-7, 20 μg/ml 1 hr before assay, FIG. 4
  CPT-1 activity, % of control: 166 % of control
CPT-1 [3]; MCF-7, 20 μg/ml for one hour before assay, no C75 in the assay buffer, FIG. 3
  CPT-1 activity, % of control: 158 % of control
CPT-1 [3]; MCF-7, C75 20 μg/ml one hour pretreatment, FIG. 3
  CPT-1 stimulation after C75 removed from buffer and malonyl-CoA 20 μM added: stimulatory activity is lost
CPT-1 [3]; MCF-7, C75 10 or 20 μg/mL 1 hr, malonyl-CoA 20 uM, FIG. 2
  difference in CPT-1 activity between C75 and C75 plus malonyl-CoA: no statistically significant difference
CPT-1 [3]; MCF-7 cells in vitro
  stimulated CPT-I activity: 150-160%
MCF-7 cells [4]
  total cellular ATP: significant increase
